Data from US7265120B2, “Pyrazine derivatives and pharmaceutical use thereof” (Astellas Pharma Inc., priority 2004, dated 2007).

How the values were obtained:
human A2a receptor = human A2a receptor (Homo sapiens, UniProt P29274); assay: Adenosine antagonistic activity, radioligand binding ([3H]CGS 21680); conditions: [3H]CGS 21680 20 nM
Method: (§1) Test 1: Adenosine Antagonistic Activity
(§2) The adenosine antagonistic activity [Ki (nM)] of the test compound was examined by radioligand binding techniques using 8-cyclopentyl-1,3-dipropylxanthine, [dipropyl-2,3-^3H(N)] ([^3H]DPCPX, 4.5 nM) for human A1 receptor and [^3H]CGS 21680 (20 nM) for human A2a receptor.

ddY mice = assay: Anticatalepsy activity in mouse (haloperidol-induced catalepsy, bar test); assay type: in vivo; conditions: 3.2 mg/kg orally, ddY mice n=7; haloperidol 0.32 mg/kg i.p. 30 min after compound; measured 30 min after injection, up to 30 sec
Method: Test 2: Anticatalepsy Activity in Mouse [I] Test Method
The test compound (3.2 mg/kg) was administered orally with ddY mice (n=7). Then, haloperidol (0.32 mg/kg) was injected intraperitoneally 30 min. after the administration of the compound. Thirty min. after the injection, the cataleptic responses of mice were measured. The forelimbs of each mouse were placed on a 3 cm high, 3 mm wide horizontal bar, and the duration of cataleptic posture was measured for up to 30 sec.

human A1 receptor = target: T1, human A1 receptor (Homo sapiens, UniProt P30542); assay: Adenosine antagonistic activity, radioligand binding ([3H]DPCPX); conditions: [3H]DPCPX 4.5 nM
T1 sequence (P30542 1-326): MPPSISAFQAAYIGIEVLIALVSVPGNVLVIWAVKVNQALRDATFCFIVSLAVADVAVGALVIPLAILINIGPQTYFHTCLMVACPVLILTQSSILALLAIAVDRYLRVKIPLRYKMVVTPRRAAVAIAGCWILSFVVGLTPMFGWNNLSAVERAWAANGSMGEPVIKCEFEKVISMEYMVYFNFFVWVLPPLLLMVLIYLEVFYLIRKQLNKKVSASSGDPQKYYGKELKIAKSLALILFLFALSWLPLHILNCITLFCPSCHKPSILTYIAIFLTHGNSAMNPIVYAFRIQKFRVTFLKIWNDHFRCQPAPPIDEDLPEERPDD
Method: as §1, §2

Sequence of human A2a receptor (P29274 whole entry): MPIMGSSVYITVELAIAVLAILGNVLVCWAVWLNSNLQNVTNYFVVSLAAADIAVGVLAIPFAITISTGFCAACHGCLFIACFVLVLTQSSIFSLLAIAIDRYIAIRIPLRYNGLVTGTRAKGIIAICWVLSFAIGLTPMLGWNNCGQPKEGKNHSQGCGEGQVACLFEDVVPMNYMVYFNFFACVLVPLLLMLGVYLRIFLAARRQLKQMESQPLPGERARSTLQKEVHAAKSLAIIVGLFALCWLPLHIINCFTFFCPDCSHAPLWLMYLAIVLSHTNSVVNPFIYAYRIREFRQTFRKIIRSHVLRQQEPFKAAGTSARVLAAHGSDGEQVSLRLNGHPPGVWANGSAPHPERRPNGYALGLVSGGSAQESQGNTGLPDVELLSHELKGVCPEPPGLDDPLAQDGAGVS

SMILES	Ki (human A2a receptor)	melting point	Manifestation rate of Catalepsy (number of mouse) (ddY mice)	Ki (human A1 receptor)
Cn1nc(-c2nc(OCc3ccco3)c(N)nc2-c2ccccc2)ccc1=O [Example 184, 6-[5-amino-6-(2-furylmethoxy)-3-phenyl-2-pyrazinyl]-2-methyl-3(2H)-pyridazinone]	1.49 nM	158 to 159.5 °C	2/7	13.2 nM
CC(C)n1nc(-c2nc(Br)c(N=S(C)C)nc2-c2ccccc2)ccc1=O [Example 66, 6-{6-bromo-5-[(dimethyl-lambda˜4˜-sulfanylidene)amino]-3-phenyl-2-pyrazinyl}-2-isopropyl-3(2H)-pyridazinone]	6.79 nM	220 to 224 °C	1/7	16 nM
Cn1nc(-c2nc(C#N)c(N)nc2-c2ccccc2)ccc1=O [Example 17, 3-Amino-6-(1-methyl-6-oxo-1,6-dihydro-3-pyridazinyl)-5-phenyl-2-pyrazinecarbonitrile]	1.72 nM	> 250 °C	0/7	11.2 nM
Cn1nc(-c2nc(-n3cccn3)c(N)nc2-c2ccccc2)ccc1=O [Example 153, 6-[5-amino-3-phenyl-6-(1H-pyrazol-1-yl)-2-pyrazinyl]-2-methyl-3(2H)-pyridazinone]	4.95 nM	187 to 189.5 °C	2/7	18.9 nM
